Measured values reported in PubChem BioAssay (NCI).
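Dose response: 5 concentrations. Exposure: 48 h. Format: 96-well plates. Endpoint: linear interpolation; highest concentration if not reached. The concentration for 50% growth inhibition is given as GI50. TGI is the concentration that stops growth completely.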

Columns and labels:
Assay in all cases: NCI anticancer screen, dose series, 48 h
CCRF-CEM leukemia = system: CCRF-CEM leukemia
KM12 colon = system: KM12 colon
NCI-H460 lung = system: NCI-H460 lung
NCI/ADR-RES ovarian = system: NCI/ADR-RES ovarian
OVCAR-3 ovarian = system: OVCAR-3 ovarian
PC-3 prostate = system: PC-3 prostate
SF-539 CNS = system: SF-539 CNS
SK-MEL-5 melanoma = system: SK-MEL-5 melanoma
T-47D breast = system: T-47D breast
UACC-257 melanoma = system: UACC-257 melanoma

O=C(Nc1ccc(Cl)c(C(F)(F)F)c1)C(=O)c1c(O)c2ccccc2oc1=O
TGI (CCRF-CEM leukemia): > 100 µM
TGI (KM12 colon): > 100 µM
TGI (NCI-H460 lung): > 100 µM
TGI (NCI/ADR-RES ovarian): > 100 µM
TGI (OVCAR-3 ovarian): > 100 µM
TGI (PC-3 prostate): > 100 µM
TGI (SF-539 CNS): > 100 µM
TGI (SK-MEL-5 melanoma): > 100 µM
TGI (T-47D breast): > 100 µM
TGI (UACC-257 melanoma): > 100 µM

Cc1ccc(NC(=O)c2ccc(NC3=C(Cl)C(=O)N(Cc4ccccc4)C3=O)cc2)cc1Cl
GI50 (CCRF-CEM leukemia): 1.02 µM
TGI (CCRF-CEM leukemia): 3.54 µM
GI50 (KM12 colon): 31 µM
TGI (KM12 colon): > 100 µM
GI50 (NCI-H460 lung): 10.3 µM
TGI (NCI-H460 lung): 27 µM
GI50 (NCI/ADR-RES ovarian): 3.78 µM
TGI (NCI/ADR-RES ovarian): 21.7 µM
GI50 (OVCAR-3 ovarian): 3.6 µM
TGI (OVCAR-3 ovarian): 18.7 µM
GI50 (PC-3 prostate): 12.5 µM
TGI (PC-3 prostate): 25.1 µM
GI50 (SF-539 CNS): 2.47 µM
TGI (SF-539 CNS): 16.4 µM
GI50 (SK-MEL-5 melanoma): 12 µM
TGI (SK-MEL-5 melanoma): 24.3 µM
GI50 (T-47D breast): 2.8 µM
TGI (T-47D breast): 14.5 µM
GI50 (UACC-257 melanoma): 13.3 µM
TGI (UACC-257 melanoma): 35.8 µM

Cc1ccc(NC2=CC(=O)C(=O)c3ccccc32)c(C)c1
GI50 (CCRF-CEM leukemia): 6.23 µM
TGI (CCRF-CEM leukemia): > 100 µM
GI50 (KM12 colon): 2.82 µM
TGI (KM12 colon): 13.1 µM
GI50 (NCI-H460 lung): 2.57 µM
TGI (NCI-H460 lung): 7.68 µM
GI50 (NCI/ADR-RES ovarian): 2.92 µM
TGI (NCI/ADR-RES ovarian): 11.8 µM
GI50 (OVCAR-3 ovarian): 1.49 µM
TGI (OVCAR-3 ovarian): 4.47 µM
GI50 (PC-3 prostate): 3.37 µM
TGI (PC-3 prostate): 17.1 µM
GI50 (SF-539 CNS): 3.63 µM
TGI (SF-539 CNS): 13.2 µM
GI50 (SK-MEL-5 melanoma): 1.44 µM
TGI (SK-MEL-5 melanoma): 2.79 µM
GI50 (T-47D breast): 3.96 µM
TGI (T-47D breast): 25.2 µM
GI50 (UACC-257 melanoma): 1.96 µM
TGI (UACC-257 melanoma): 4.44 µM

CC(C)C/C(=N\NC(=O)c1ccncc1)c1cc(Cl)ccc1O
GI50 (CCRF-CEM leukemia): 0.0864 µM
TGI (CCRF-CEM leukemia): > 58.5 µM
GI50 (KM12 colon): 0.389 µM
TGI (KM12 colon): 57.4 µM
GI50 (NCI-H460 lung): 0.127 µM
TGI (NCI-H460 lung): 31.8 µM
GI50 (NCI/ADR-RES ovarian): 0.289 µM
TGI (NCI/ADR-RES ovarian): > 23.7 µM
GI50 (OVCAR-3 ovarian): 0.204 µM
TGI (OVCAR-3 ovarian): 5.24 µM
GI50 (PC-3 prostate): 1.01 µM
TGI (PC-3 prostate): 73.5 µM
GI50 (SF-539 CNS): 0.363 µM
TGI (SF-539 CNS): 5.58 µM
GI50 (SK-MEL-5 melanoma): 0.562 µM
TGI (SK-MEL-5 melanoma): 2.53 µM
GI50 (T-47D breast): 0.584 µM
TGI (T-47D breast): 33.3 µM
GI50 (UACC-257 melanoma): 0.41 µM
TGI (UACC-257 melanoma): 6.62 µM

O=C(/C=C/c1cccc(Oc2ccc(Cl)cc2)c1)c1ccccc1
GI50 (CCRF-CEM leukemia): 31.6 µM
TGI (CCRF-CEM leukemia): 384 µM
GI50 (KM12 colon): 34.9 µM
TGI (KM12 colon): 125 µM
GI50 (NCI-H460 lung): 60.1 µM
TGI (NCI-H460 lung): 208 µM
GI50 (NCI/ADR-RES ovarian): 37.1 µM
TGI (NCI/ADR-RES ovarian): 232 µM
GI50 (OVCAR-3 ovarian): 21.1 µM
TGI (OVCAR-3 ovarian): 42.8 µM
GI50 (PC-3 prostate): 19.7 µM
TGI (PC-3 prostate): 37.8 µM
GI50 (SF-539 CNS): 21.3 µM
TGI (SF-539 CNS): 53.2 µM
GI50 (SK-MEL-5 melanoma): 36 µM
TGI (SK-MEL-5 melanoma): 127 µM
GI50 (T-47D breast): 46.3 µM
TGI (T-47D breast): 235 µM
GI50 (UACC-257 melanoma): 185 µM
TGI (UACC-257 melanoma): 344 µM

C=CC[PH+](c1ccccc1)c1ccccc1.C=CC[PH+](c1ccccc1)c1ccccc1.[Pt+2].[S-]c1ncccn1.[S-]c1ncccn1
GI50 (CCRF-CEM leukemia): 3.17 µM
TGI (CCRF-CEM leukemia): > 100 µM
GI50 (KM12 colon): 28.4 µM
TGI (KM12 colon): > 100 µM
GI50 (NCI-H460 lung): 18.5 µM
TGI (NCI-H460 lung): 48.1 µM
GI50 (NCI/ADR-RES ovarian): 22.9 µM
TGI (NCI/ADR-RES ovarian): > 100 µM
GI50 (OVCAR-3 ovarian): 2.88 µM
TGI (OVCAR-3 ovarian): 9.49 µM
GI50 (PC-3 prostate): 11 µM
TGI (PC-3 prostate): 37.7 µM
GI50 (SF-539 CNS): 21.4 µM
TGI (SF-539 CNS): 52.3 µM
GI50 (SK-MEL-5 melanoma): 17.3 µM
TGI (SK-MEL-5 melanoma): 38.5 µM
GI50 (T-47D breast): 3.71 µM
TGI (T-47D breast): 87.2 µM
GI50 (UACC-257 melanoma): 11.6 µM
TGI (UACC-257 melanoma): 37.2 µM
